From patent US20030180355A1, “Combination therapy for hypertension” (priority 2001, published 2003)
Marks after values point to notes of the source that are not given here.

How the values were obtained:
[1] = cited from earlier work
[2] = tested on: patients with a sitting diastolic blood pressure (SDBP) of 95-109 mm Hg; test: Clinical study, factorial design, randomized double-blind placebo-controlled, 8 weeks; type: in vivo, human; conditions: for Therapeutic response rate, study participants with SDBP < 90 mm Hg / Change in SDBP / Change in SSBP: 8 weeks; for Change in SDBP / Change in SSBP: vs baseline, response surface analysis
Experimental: A multi-center, randomized, double-blind, placebo-controlled, parallel groups, factorial design trial was conducted. After a 14-day (±3 days) screening/washout period during which patients were washed from ongoing antihypertensive therapy, eligible patients with a sitting diastolic blood pressure (SDBP) of 95-109 mm Hg, entered the 28 day (±3 days) single-blind placebo run-in period during which they received placebo once-daily. Patients who were not responsive to this treatment and whose SDBP was 95-109 mm Hg, were randomized into an eight-week double-blind treatment phase. Baseline measurements were taken on Study Day 0 with post-therapy assessments during the double blind period scheduled on Study Days 14, 28, 42, and 56. Laboratory tests were conducted prior to the beginning of the screening period and on study Day 0 as well as at the end of the study.
The number of patients screened was greater than 800; 798 entered the 4-week single-blind placebo period, and 663 eligible patients were randomized into the 8-week double-blind treatment. The number in parenthesis represents the number of patients in each group available for efficacy evaluation.
The patients were randomized into one of the above noted 12 treatment groups. Tablets of lercanidipine (5 and 10 mg) and enalapril (2.5 mg) were encapsulated in the appropriate doses, in order to assure double-blind conditions. All tablets were of commercial origin except for the 5 mg lercanidipine, which were prepared in accordance with Table 3.
Patients were instructed to take one capsule of the study medication once daily 15 minutes before breakfast, between 6 and 10 am. All medications were to be withheld on mornings of clinic visits until after blood pressure evaluations at 22-26 hours following the previous day's dose of study medication.
1. Trough (Minimum) (24±2 hours post-dose) sitting diastolic blood pressure (SDBP)
2. Trough (24±2 hours post-dose) sitting systolic blood pressure (SSBP)
4. Percent of patients with SDBP<90 mm Hg
The primary efficacy variable was the change from baseline to mean trough SDBP after 8 weeks of double-blind treatment. The analysis was performed in an “intent-to-treat” fashion, including all randomized patients who had received at least one dose of double-blind treatment, and had at least one post-baseline SDBP measurement 18-48 hours post-dose. In case of premature withdrawal from the study the last observation carried forward (LOCF) algorithm was applied (“end point analysis”).
The overall treatment comparison was performed using an analysis of covariance (ANCOVA) with treatment and centers as main effects and baseline value as covariate.
An additional ANOVA was performed using the factorial model in order to test for the interaction of lercanidipine dose and enalapril dose at each time-point.
The number of patients who discontinued the study because of an adverse event is reported in parenthesis.

[3] = tested on: uninephrectomized anesthetized rats; test: Model of acute angiotensin-mediated renal hypertension in anesthetized rats; type: in vivo, Sprague-Dawley rats
Experimental: Male Sprague-Dawley rats, weighing 250-300 g, were anaesthetized with pentobarbital sodium (35 mg/kg, i.p.) and placed on a thermic blanket. The temperature was maintained at 37° C. with a thermoregulator via a rectal probe. The animals were tracheotomized to facilitate spontaneous breathing. A polyethylene catheter was placed in the left jugular vein to allow for infusion of pentobarbital sodium to maintain anesthesia. The left femoral vein and artery were cannulated with polyethylene catheters to allow drugs administration and to monitor blood pressure, respectively.
The animals then underwent a left nephrectomy by excising the left kidney via a flank incision. The right kidney and renal vein, artery and ureter then were exposed via a right retroperitoneal incision, under a dissecting microscope. Silk threads were placed around both vessels and ureter. The cavity was then covered with Vaseline oil. See Recordati, et al. 2000, J. Hypertension, 18:1277-1287.
ECG (lead II) was recorded by means of subcutaneous electrodes. After 30-60 minutes of basal recordings of arterial blood pressure and heart rate the threads around the renal vessels and ureter were tied close to the renal hilum to induce complete renal ischemia of the right kidney. After 2 hours of ischemia (designed as “120” in Tables 1-4), the threads were removed to allow renal reperfusion and urine output. The reopening of the renal hilum and restoration of renal circulation, induced an increase in blood pressure that peaked 5-10 minutes and lasted about 60 minutes. Drugs (vehicle, enalapril (100 μg/kg), lercanidipine (10 μg/kg), or both lercanidipine (10 μg/kg) and enalapril (100 μg/kg)) were administered intravenously at 5 minutes after reperfusion began (defined as 125 in Tables 4-7).
Statistical analysis was performed during the reperfusion time (time 125-180 minutes). To evaluate the statistical differences among the treatment groups, data were analyzed using a three-way ANOVA (analysis of variance) with repeated measures on factor time and pre-planned multiple comparisons. Statistical analysis was performed by means of general linear model procedure (GLM) with SAS software version 6.12.

[4] = enalapril 5 mg once daily, 55 patients randomized
[5] = enalapril 10 mg once daily, 55 patients randomized
[6] = enalapril 100 μg/kg i.v., time 0 min, basal
[7] = enalapril 100 μg/kg i.v., time 120 min, end of ischemia, before drug
[8] = enalapril 100 μg/kg i.v., time 125 min, reperfusion, before drug
[9] = enalapril 100 μg/kg i.v., time 130 min, drug given at 125 min
[10] = enalapril 100 μg/kg i.v., time 135 min, drug given at 125 min
[11] = enalapril 100 μg/kg i.v., time 150 min, drug given at 125 min
[12] = enalapril 100 μg/kg i.v., time 165 min, drug given at 125 min
[13] = enalapril 100 μg/kg i.v., time 180 min, drug given at 125 min
[14] = lercanidipine 5 mg once daily, 54 patients randomized
[15] = lercanidipine 10 mg once daily, 57 patients randomized
[16] = lercanidipine 20 mg once daily, 54 patients randomized
[17] = lercanidipine 10 μg/kg i.v., time 0 min, basal
[18] = lercanidipine 10 μg/kg i.v., time 120 min, end of ischemia, before drug
[19] = lercanidipine 10 μg/kg i.v., time 125 min, reperfusion, before drug
[20] = lercanidipine 10 μg/kg i.v., time 130 min, drug given at 125 min
[21] = lercanidipine 10 μg/kg i.v., time 135 min, drug given at 125 min
[22] = lercanidipine 10 μg/kg i.v., time 150 min, drug given at 125 min
[23] = lercanidipine 10 μg/kg i.v., time 165 min, drug given at 125 min
[24] = lercanidipine 10 μg/kg i.v., time 180 min, drug given at 125 min

## CCOC(=O)[C@H](CCc1ccccc1)N[C@@H](C)C(=O)N1CCC[C@H]1C(=O)O [enalapril, (S)-1-[N-1-(ethoxycarbonyl)-3-phenylpropyl]-L-alanyl-L-proline]
[1]; following oral administration of enalapril
  time of peak plasma levels of enalaprilat: 3 to 4 h
[2]; enalapril 5 mg once daily
  Therapeutic response rate, study participants with SDBP < 90 mm Hg: 28%
  Change in SDBP: −7.7
[2]; enalapril 5 mg once daily, confidence interval in parentheses
  Change in SSBP: −9.6 (8.1-11.2)
[2]; [4]
  number of patients who discontinued the study because of an adverse event: 1
  number of patients with any adverse events related to study drug: 9
[2]; enalapril 10 mg once daily
  Therapeutic response rate, study participants with SDBP < 90 mm Hg: 43%
  Change in SDBP: −8.8
[2]; enalapril 10 mg once daily, confidence interval in parentheses
  Change in SSBP: −11.1 (9.1-13.2)
[2]; [5]
  number of patients who discontinued the study because of an adverse event: 1
  number of patients with any adverse events related to study drug: 12
[3]; [6]
  DBP (diastolic blood pressure): 69.6 ± 2.1 mmHg
  MBP (mean blood pressure): 83.4 ± 2.1 mmHg
  SBP (systolic blood pressure): 111.0 ± 2.6 mmHg
[3]; [7]
  DBP (diastolic blood pressure): 65.1 ± 3.5 mmHg
  MBP (mean blood pressure): 80.0 ± 3.9 mmHg
  SBP (systolic blood pressure): 109.9 ± 5.1 mmHg
[3]; [8]
  DBP (diastolic blood pressure): 124.9 ± 4.3 mmHg
  MBP (mean blood pressure): 142.2 ± 5.4 mmHg
  SBP (systolic blood pressure): 176.8 ± 8.1 mmHg
[3]; [9]
  DBP (diastolic blood pressure): 109.9 ± 4.1 a mmHg
  MBP (mean blood pressure): 122.0 ± 4.1 b mmHg
  SBP (systolic blood pressure): 146.1 ± 4.5 c mmHg
[3]; [10]
  DBP (diastolic blood pressure): 107.1 ± 4.5 a mmHg
  MBP (mean blood pressure): 119.4 ± 4.2 b mmHg
  SBP (systolic blood pressure): 143.9 ± 4.1 b mmHg
[3]; [11]
  DBP (diastolic blood pressure): 95.9 ± 7.9 b mmHg
  MBP (mean blood pressure): 109.0 ± 7.4 c mmHg
  SBP (systolic blood pressure): 135.4 ± 6.6 b mmHg
[3]; [12]
  DBP (diastolic blood pressure): 86.5 ± 8.5 b mmHg
  MBP (mean blood pressure): 100.5 ± 8.0 b mmHg
  SBP (systolic blood pressure): 128.5 ± 7.6 a mmHg
[3]; [13]
  DBP (diastolic blood pressure): 78.9 ± 7.6 a mmHg
  MBP (mean blood pressure): 93.7 ± 7.2 a mmHg
  SBP (systolic blood pressure): 123.4 ± 6.9 mmHg
[3]; three-way ANOVA, reperfusion time 125-180 min, lercanidipine 10 μg/kg, enalapril 100 μg/kg i.v.
  p value on mean blood pressure vs lercanidipine: p < 0.001

## COC(=O)C1=C(C)NC(C)=C(C(=O)OC(C)(C)CN(C)CCC(c2ccccc2)c2ccccc2)C1c1cccc([N+](=O)[O-])c1 (stereo not drawn) [lercanidipine, methyl 1,1,N-trimethyl-N-(3,3-diphenylpropyl)-2-aminoethyl 1,4-dihydro-2,6-dimethyl-4-(3-nitrophenyl)pyridine-3,5-dicarboxylate]
[1]; following oral dosing
  time of peak plasma levels: 2 to 3 h
[2]; lercanidipine 5 mg once daily
  Therapeutic response rate, study participants with SDBP < 90 mm Hg: 32%
[2]; lercanidipine 5 mg once daily, confidence interval in parentheses
  Change in SSBP: −9.5 (7.8-11.1)
[2]; [14]
  number of patients who discontinued the study because of an adverse event: 3
  number of patients with any adverse events related to study drug: 8
[2]; lercanidipine 10 mg once daily
  Therapeutic response rate, study participants with SDBP < 90 mm Hg: 40%
  Change in SDBP: −8.2
[2]; lercanidipine 10 mg once daily, confidence interval in parentheses
  Change in SSBP: −10.8 (9.1-12.4)
[2]; [15]
  number of patients who discontinued the study because of an adverse event: 1
  number of patients with any adverse events related to study drug: 10
[2]; lercanidipine 20 mg once daily
  Therapeutic response rate, study participants with SDBP < 90 mm Hg: 59%*
  Change in SDBP: −9.9*
[2]; lercanidipine 20 mg once daily, in mm Hg
  Change in SSBP: −13.4* (11.1-15.6)
[2]; [16]
  number of patients who discontinued the study because of an adverse event: 3
  number of patients with any adverse events related to study drug: 10
[3]; [17]
  DBP (diastolic blood pressure): 69.8 ± 2.5 mmHg
  MBP (mean blood pressure): 83.3 ± 2.8 mmHg
  SBP (systolic blood pressure): 110.4 ± 3.6 mmHg
[3]; [18]
  DBP (diastolic blood pressure): 70.6 ± 5.4 mmHg
  MBP (mean blood pressure): 85.3 ± 5.7 mmHg
  SBP (systolic blood pressure): 114.5 ± 6.5 mmHg
[3]; [19]
  DBP (diastolic blood pressure): 119.3 ± 5.2 mmHg
  MBP (mean blood pressure): 135.4 ± 6.4 mmHg
  SBP (systolic blood pressure): 167.6 ± 8.9 mmHg
[3]; [20]
  DBP (diastolic blood pressure): 97.1 ± 3.1 c mmHg
  MBP (mean blood pressure): 111.5 ± 3.2 c mmHg
  SBP (systolic blood pressure): 140.4 ± 3.8 b mmHg
[3]; [21]
  DBP (diastolic blood pressure): 93.1 ± 4.0 c mmHg
  MBP (mean blood pressure): 108.9 ± 3.7 c mmHg
  SBP (systolic blood pressure): 140.5 ± 3.7 a mmHg
[3]; [22]
  DBP (diastolic blood pressure): 89.5 ± 4.3 b mmHg
  MBP (mean blood pressure): 106.1 ± 3.9 b mmHg
  SBP (systolic blood pressure): 139.4 ± 3.7 mmHg
[3]; [23]
  DBP (diastolic blood pressure): 83.5 ± 4.6 a mmHg
  MBP (mean blood pressure): 99.7 ± 4.7 mmHg
  SBP (systolic blood pressure): 132.0 ± 5.3 mmHg
[3]; [24]
  DBP (diastolic blood pressure): 78.8 ± 4.0 mmHg
  MBP (mean blood pressure): 95.2 ± 4.1 mmHg
  SBP (systolic blood pressure): 128.1 ± 4.7 mmHg
